Square brackets hold non-standard residues; d marks the D form. Peptide text beside a SMILES is read from it. Sar = CNCC(=O)O
Experiments:
Hsmr = experiment: EtBr efflux assay, E. coli expressing Hsmr; assay type: cell-based, Halobacterium salinarum; conditions: E. coli cells expressing Hsmr, EtBr fluorescence decay
Procedure: (§1) FIG. 4. (A) Proof-of-concept: Inhibition of Hsmr activity by an SMR TM4-mimic peptide. Hsmr-mediated efflux of the fluorescent toxicant ethidium bromide (EtBr) from E. coli cells upon treatment with a peptide derived from Hsmr TM4(85-105) [sequence shown]. Curves represent the change in EtBr fluorescence upon exiting the bacteria. Ac-A=acetyl-Ala. The black line indicates efflux by Hsmr in the absence of peptide; red line=efflux after addition of 1 μM TM4 peptide. The % efflux is compared in the black and red bars at the right. (B) Bioactivity profiles of designed SMR drug efflux inhibitor peptides. Four assays—EtBr efflux activity (Efflux), EtBr resensitization (ER), antimicrobial activity (AA), and hemolytic activity in human red blood cells (RBC) are depicted for linear peptides TM4(85-105) (left panel), and TM4(88-100) (centre); and stapled (S) peptide S-TM4(88-100)-N95 (right). Values for ER, AA and RBCs are given as the minimal inhibitory (MIC) or hemolytic concentration (MHC) (right axis).
FIG. 5. (A) Ethidium bromide efflux from E. coli bacteria expressing Hsmr. Peptides were added to ethidium bromide (EtBr) treated cells and incubated for 1 hr. The fluorescence of EtBr drops as the toxin is effluxed from the cells. ‘No peptide’ (maximum efflux control) is depicted in black. The core sequences of the peptides studied are based on the consensus sequence in Table 1. Residues in red emphasize retention of the common SMR TM4-TM4 interface in pathogenic bacteria. (B) EtBr efflux from E. coli containing plasmid-borne SMR from P. aeruginosa, (Psmr), as mediated by peptide LIN (full sequence=Ac-A(Sar)3-^88IIGIALINAGVVV^100-KKK-NH2). This experiment was performed as described in FIG. 4. […]
EtBr efflux represents a rapid and validated means by which to screen for SMR-mediated resistance activity [Poulsen and Deber, 2012, Antimicrob. […] Upon its removal, EtBr efflux is monitored by fluorescence decay.

[1] = system: human red blood cells (RBCs); assay type: cell-based; conditions: for minimal hemolytic concentration (MHC): red cells of human
Procedure: as §1
As a necessary measure for any projected clinical applications of the designed inhibitors, hemolytic activity of peptides is assayed in human RBCs to confirm mammalian cell tolerance [Yin et al., 2012, J. Biol. Chem. 287, 7738-7745].

E. coli = experiment: EtBr resensitization assay; assay type: cell-based; conditions: sublethal toxicant plus peptide; FIG. 4B, result in words
Procedure: as §1
Resensitization to EtBr and other toxic SMR substrates are evaluated by incubating the bacteria with a sublethal concentration of the toxicant and twofold dilutions of peptide at 37° C. for 20 hr, after which bacterial growth (or lack thereof) is evaluated [Bellman-Sickert et al., 2015, J. Biol. Chem. 290, 1752-1759]. […]

[2] = biological target: T1, SMR from P. aeruginosa (Psmr) (Pseudomonas aeruginosa, UniProt Q9HUH5); experiment: EtBr efflux assay, E. coli containing plasmid-borne Psmr; assay type: cell-based; conditions: 8 μM peptide; FIG. 5B
T1 construct: expressed in transfected cells; host or cells: E. coli
T1 sequence (Q9HUH5 whole entry, looked up): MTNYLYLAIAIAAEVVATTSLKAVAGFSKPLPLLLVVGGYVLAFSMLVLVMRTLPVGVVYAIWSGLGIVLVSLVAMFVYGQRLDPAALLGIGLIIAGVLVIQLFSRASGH
Procedure: FIG. 5. (A) Ethidium bromide efflux from E. coli bacteria expressing Hsmr. Peptides were added to ethidium bromide (EtBr) treated cells and incubated for 1 hr. The fluorescence of EtBr drops as the toxin is effluxed from the cells. ‘No peptide’ (maximum efflux control) is depicted in black. The core sequences of the peptides studied are based on the consensus sequence in Table 1. Residues in red emphasize retention of the common SMR TM4-TM4 interface in pathogenic bacteria. (B) EtBr efflux from E. coli containing plasmid-borne SMR from P. aeruginosa, (Psmr), as mediated by peptide LIN (full sequence=Ac-A(Sar)3-^88IIGIALINAGVVV^100-KKK-NH2). This experiment was performed as described in FIG. 4.
EtBr efflux represents a rapid and validated means by which to screen for SMR-mediated resistance activity [Poulsen and Deber, 2012, Antimicrob. Agents Chemother. 56, 3911-3916]. Here, E. coli cells are incubated with the peptide, EtBr and carbonyl cyanide 3-chlorophenylhydrazone (CCCP), a widely-used ionophore that acts as a disruptor of the proton-motive force. Upon its removal, EtBr efflux is monitored by fluorescence decay.
In this context, we have recently performed two pilot studies. […]

[3] = system: E. coli (BL21 strain) overexpressing the SMR from P. aeruginosa (Psmr); experiment: Resensitization of bacteria to growth inhibition by benzalkonium chloride (BZK); assay type: cell-based; conditions: for inhibition of bacterial growth, single agent: agent alone (sublethal BZK or non-toxic dose of peptide); for inhibition of bacterial growth, single agent / inhibition of bacterial growth, peptide together with BZK: result in words; for inhibition of bacterial growth, peptide together with BZK: sub-lethal concentration of BZK plus peptide
Procedure: FIG. 7. Resensitization of bacteria to growth inhibition by the disinfectant benzalkonium chloride (BZK). […] However, when the BZK and TM4 peptide were both present at the same concentrations, the bacterial growth was reduced to <1% [i.e., inhibited to >99% (arrow)]. As a control, the same experiment was performed with a ‘scrambled’ version of TM4 peptide (termed SCR control), having identical amino acid composition but lacking the GG7 motif for binding to Psmr and disruption of its native dimer. […] TM4 peptide=Ac-Ala-(Sar)3-[…]-KKK—NH2 (see also Table 1). SCR control peptide=Ac-Ala-(Sar)3-LLVLAGIGIIGLV-KKK—NH2.
Antimicrobial peptides are exciting leads in the development of novel biocidal agents. Such peptides are currently used commercially in topical formulations, such as the lipopeptides polymyxin B and daptomycin [Kalorama Information Market Intelligence Report, “Health Care Infection Control Market” (126 reports; published on-line May, 2016)]. […] 2013. p. 128]. Despite this, we are not aware of any reports of a peptide that inhibits and/or prevents bacterial resistance to BZK and to other biocide mainstays of hospital and health care facilities. In this context, we examined the ability of the prototypic inhibitor peptides described herein to resensitize pathogenic bacteria to BZK and related disinfectants.

[4] = sublethal BZK and non-toxic dose of peptide both present, FIG. 7

Compound	inhibition of Hsmr-mediated EtBr efflux (Hsmr)	hemolytic activity [1]	minimal hemolytic concentration (MHC) [1]	inhibition of bacterial growth, single agent [3]	inhibition of bacterial growth, peptide together with BZK [3]	also measured
CC[C@H](C)[C@H](NC(=O)[C@H](CC(C)C)NC(=O)[C@H](C)NC(=O)[C@H](CC(C)C)NC(=O)CNC(=O)[C@@H](NC(=O)[C@@H](NC(=O)CNC(=O)[C@H](C)NC(=O)[C@@H](NC(=O)CN(C)C(=O)CN(C)C(=O)CN(C)C(=O)[C@H](C)NC(C)=O)C(C)C)C(C)C)C(C)C)C(=O)N[C@H](C(=O)N[C@@H](C)C(=O)NCC(=O)N[C@H](C(=O)N[C@H](C(=O)N[C@H](C(=O)N[C@@H](CC(C)C)C(=O)N[C@@H](CC(N)=O)C(=O)N[C@H](C(=O)N[C@@H](C)C(=O)N[C@@H](CO)C(=O)N[C@@H](CCCCN)C(=O)N[C@@H](CCCCN)C(=O)N[C@@H](CCCCN)C(N)=O)C(C)C)C(C)C)C(C)C)C(C)C)C(C)C [TM4(85-105)] (Ac-A[Sar][Sar][Sar]VAGVVGLALIVAGVVVLNVASKKK-NH2)	specifically inhibit Hsmr-mediated efflux	partially hemolytic	~10 µM	–	–	–
CC[C@H](C)[C@H](NC(=O)[C@H](CC(C)C)NC(=O)[C@H](C)NC(=O)[C@H](CC(C)C)NC(=O)CNC(=O)[C@@H](NC(=O)[C@@H](NC(=O)CN(C)C(=O)CN(C)C(=O)CN(C)C(=O)[C@H](C)NC(C)=O)C(C)C)C(C)C)C(=O)N[C@H](C(=O)N[C@@H](C)C(=O)NCC(=O)N[C@H](C(=O)N[C@H](C(=O)N[C@H](C(=O)N[C@@H](CCCCN)C(=O)N[C@@H](CCCCN)C(=O)N[C@@H](CCCCN)C(N)=O)C(C)C)C(C)C)C(C)C)C(C)C [TM4(88-100)] (Ac-A[Sar][Sar][Sar]VVGLALIVAGVVVKKK-NH2)	significant efflux	total absence of hemolysis	> 200 µM	–	–	inhibition of Hsmr-mediated EtBr efflux (Hsmr; listed as Hsmr TM4(88-100)): maintain SMR inhibitory function at levels comparable to the full-length TM4 peptide; EtBr resensitization (ER) (E. coli): excellent resensitization
Ac-A(Sar)3-^88IIGIALINAGVVV^100-KKK-NH2 (Ac-A[Sar][Sar][Sar]IIGIALINAGVVVKKK-NH2; SMILES CC[C@H](C)[C@H](NC(=O)CNC(=O)[C@@H](NC(=O)[C@@H](NC(=O)CN(C)C(=O)CN(C)C(=O)CN(C)C(=O)[C@H](C)NC(C)=O)[C@@H](C)CC)[C@@H](C)CC)C(=O)N[C@@H](C)C(=O)N[C@@H](CC(C)C)C(=O)N[C@H](C(=O)N[C@@H](CC(N)=O)C(=O)N[C@@H](C)C(=O)NCC(=O)N[C@H](C(=O)N[C@H](C(=O)N[C@H](C(=O)N[C@@H](CCCCN)C(=O)N[C@@H](CCCCN)C(=O)N[C@@H](CCCCN)C(N)=O)C(C)C)C(C)C)C(C)C)[C@@H](C)CC)	–	–	–	–	–	inhibition of Psmr-mediated EtBr efflux [2]: inhibition of efflux
Ac-Ala-(Sar)3-LLGIGLIIAGVLV-KKK—NH2 (Ac-A[Sar][Sar][Sar]LLGIGLIIAGVLVKKK-NH2; SMILES CC[C@H](C)[C@H](NC(=O)CNC(=O)[C@H](CC(C)C)NC(=O)[C@H](CC(C)C)NC(=O)CN(C)C(=O)CN(C)C(=O)CN(C)C(=O)[C@H](C)NC(C)=O)C(=O)NCC(=O)N[C@@H](CC(C)C)C(=O)N[C@H](C(=O)N[C@H](C(=O)N[C@@H](C)C(=O)NCC(=O)N[C@H](C(=O)N[C@@H](CC(C)C)C(=O)N[C@H](C(=O)N[C@@H](CCCCN)C(=O)N[C@@H](CCCCN)C(=O)N[C@@H](CCCCN)C(N)=O)C(C)C)C(C)C)[C@@H](C)CC)[C@@H](C)CC) [TM4 peptide]	–	–	–	neither of which individually significantly inhibited bacterial growth	completely abolishes E. coli growth	bacterial growth [3, 4]: < 1%; inhibition of bacterial growth [3, 4]: > 99%
Ac-Ala-(Sar)3-LLVLAGIGIIGLV-KKK—NH2 (Ac-A[Sar][Sar][Sar]LLVLAGIGIIGLVKKK-NH2; SMILES CC[C@H](C)[C@H](NC(=O)CNC(=O)[C@H](C)NC(=O)[C@H](CC(C)C)NC(=O)[C@@H](NC(=O)[C@H](CC(C)C)NC(=O)[C@H](CC(C)C)NC(=O)CN(C)C(=O)CN(C)C(=O)CN(C)C(=O)[C@H](C)NC(C)=O)C(C)C)C(=O)NCC(=O)N[C@H](C(=O)N[C@H](C(=O)NCC(=O)N[C@@H](CC(C)C)C(=O)N[C@H](C(=O)N[C@@H](CCCCN)C(=O)N[C@@H](CCCCN)C(=O)N[C@@H](CCCCN)C(N)=O)C(C)C)[C@@H](C)CC)[C@@H](C)CC) [SCR peptide, scrambled version of TM4 peptide, identical composition but lacking the GG7 motif, reference compound]	–	–	–	neither the mixture of BZK+SCR peptide nor the SCR peptide alone inhibited bacterial growth	neither the mixture of BZK+SCR peptide nor the SCR peptide alone inhibited bacterial growth	inhibition of bacterial growth, peptide together with BZK ([3]; listed as ‘scrambled’ analog of the TM4 peptide): inactive
benzalkonium chloride [BZK, reference compound]	–	–	–	neither of which individually significantly inhibited bacterial growth	–	–

Source: US20190352339A1, “PEPTIDE INHIBITOR OF TRANSMEMBRANE PORE FORMATION AND EFFLUXPUMP FUNCTION IN A SMALL MULTIDRUG RESISTANCE PROTEIN FROM PSEUDOMONAS AERUGINOSA” (priority 2017, published 2019)
